This is an account of results in patent US8431113B2, “Polymer conjugates” (Biocompatibles UK Limited, priority 2002, dated 2013).

Values after ≈ are worked out from the molar mass of the structure shown.

This data set is described as follows: Effect of polymer modification on drug solubility: maximum solubility in water at room temperature, compound added step-wise. The note with it: unmodified base drug. The data set is classed as physicochemical. On the procedure:
The polymer-modified compound was added step-wise to water to determine the maximum solubility at room temperature.

As a reminder, the solubility is the dissolved amount per volume that the medium holds. A high value points to much dissolved substance. As to `O=C(O)c1ccccc1O` [Salicylic Acid, salicylic acid], the “Solubility of Drug” value is 16 mM. This molecule registered a solubility (water) of 2200 µg/mL (≈ 15.9 mM).
